This passage reports selectivity ratio and Activity results from ChEMBL document CHEMBL6153043, “Anthelmintic Potential of Conjugated Long-Chain Fatty Acids Isolated from the Bioluminescent Mushroom Neonothopanus gardneri” (J Nat Prod, 2025).

Series [1] is described as follows: Selectivity index, ratio of CC50 for African green monkey Vero cells to EC50 for anti-schistosomal activity against male Schistosoma mansoni. In kind it is toxicity, cell-based. To be noted: read-out: Ratio CC50/EC50.
Series [2] in a line: Selectivity index, ratio of CC50 for African green monkey Vero cells to EC50 for anti-schistosomal activity against female Schistosoma mansoni. In kind it is toxicity, cell-based. The conditions noted are these: read-out: Ratio CC50/EC50.
Series [3] is described as follows: Toxicity against L4 stage of Caenorhabditis elegans assessed as effect on viability by measuring mobility at 25 to 200 uM incubated for 24 hrs by inverted microscopic analysis. To be noted: dose 25-200 µM.

Turning to `O=C(C1CCCCC1)N1CC(=O)N2CCc3ccccc3C2C1` (stereo not given) [PRAZIQUANTEL], the values for the selectivity ratio in series [1] and in series [2] were greater than 250 and greater than 333, respectively.

Regarding `CCCCCCCC/C=C\[C@@H](O)[C@H](O)CCCCCC(=O)O`, the selectivity ratio was greater than 24.1 in series [1] and greater than 6.13 in series [2]. For the same compound, in series [3], the Activity result was “Non-toxic”.
